Test results taken from patent US12421193B2, “GPR52 modulators and methods of use” (Neurocrine Biosciences, Inc., priority 2020, dated 2025).
Where a name gives a salt, the structure may show the parent alone.

Target: T1, recombinant human GPR52 (Homo sapiens, UniProt Q9Y2T5)
T1 construct: expressed in transfected cells
Assay: TR-FRET cAMP assay (LANCE Ultra cAMP Kit), GPR52 activity
Type: cell-based
Conditions: Flp-In-CHO cells stably expressing recombinant human GPR52; cAMP production, normalized to the positive control
Protocol: TR-FRET cAMP assays were performed using commercially available assay kits (LANCE™ Ultra cAMP Kit). Controls and compounds were solubilized in DMSO using ½ log dilution to generate duplicate 10-point dose response curves in 384-well polypropylene compound plates. Sixty nanoliters of the diluted compounds were transferred into 384-well NBS assay plates and further diluted to 1× with the addition of 2000 cells per well. Flp-In™—CHO cells that stably express recombinant human GPR52.
Cells were harvested with cell stripper and resuspended in Stimulation Buffer (5 mM HEPES, 0.1% bovine serum albumin (BSA), 0.5 mM IBMX, pH 7.4). After thirty minutes incubation at room temperature, detection reagents were added to each well. Plates were then incubated for 30 minutes at room temperature. The LANCE™ Ultra cAMP assay uses time-resolved fluorescence resonance energy transfer (TR-FRET) to detect cAMVP production; this signal was quantified using a Pherastar multi-mode plate reader.
Dose-response curves were generated from the fluorescence counts normalized to the positive control. E EC50 values were obtained using a nonlinear regression curve-fitting program.

T1 sequence (Q9Y2T5 whole entry): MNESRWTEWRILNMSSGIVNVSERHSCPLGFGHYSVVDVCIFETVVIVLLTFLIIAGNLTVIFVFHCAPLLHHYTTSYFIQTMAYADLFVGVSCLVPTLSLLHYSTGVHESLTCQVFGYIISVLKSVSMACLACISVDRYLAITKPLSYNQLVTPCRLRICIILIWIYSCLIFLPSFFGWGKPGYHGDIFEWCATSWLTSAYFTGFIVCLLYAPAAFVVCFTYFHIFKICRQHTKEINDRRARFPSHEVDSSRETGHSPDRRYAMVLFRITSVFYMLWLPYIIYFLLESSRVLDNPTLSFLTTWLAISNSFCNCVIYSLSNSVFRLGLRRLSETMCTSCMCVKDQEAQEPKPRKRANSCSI

| EC50 [nM] | SMILES |
| --- | --- |
| 25 to 100 | Cc1cc(-c2cc(COc3ccc(C(F)(F)F)cc3)ccn2)ccc1C(N)=O [Example 1, 4-{4-[4-(trifluoromethyl)phenoxymethyl]pyridin-2-yl}2-methyl-benzamide hydrochloride] |
| < 25 | Cc1cc(-c2cc(COc3cccc(C(F)(F)F)c3)ccn2)ccc1C(N)=O [Example 2, 4-{4-[3-(trifluoromethyl)phenoxymethyl]pyridin-2-yl}-2-methyl benzamide] |
| 101 to 1000 | Cc1cc(-c2cc(COc3ccccc3C(F)(F)F)ccn2)ccc1C(N)=O [Example 3, 4-{4-[2-(trifluoromethyl)phenoxymethyl]pyridin-2-yl}-2-methyl benzamide] |
| 25 to 100 | Cc1cc(-c2cc(COc3ccc(C#N)c(F)c3)ccn2)ccc1C(N)=O [Example 4, 4-[4-(4-cyano-3-fluorophenoxymethyl)pyridin-2-yl]-2-methylbenzamide hydrochloride] |
| 101 to 1000 | Cc1cc(-c2cc(COc3cccc(S(C)(=O)=O)c3)ccn2)ccc1C(N)=O [Example 5, 4-[4-(3-methanesulfonylphenoxymethyl)pyridin-2-yl]-2-methylbenzamide] |
| 101 to 1000 | Cc1cc(-c2cc(COc3ccc(S(C)(=O)=O)cc3)ccn2)ccc1C(N)=O [Example 6, 4-[4-(4-methanesulfonylphenoxymethyl)pyridin-2-yl]-2-methylbenzamide] |
| 101 to 1000 | Cc1cc(-c2cc(COc3ccc(F)c(C#N)c3)ccn2)ccc1C(N)=O [Example 7, 4-[4-(3-cyano-4-fluorophenoxymethyl)pyridin-2-yl]-2-methylbenzamide] |
| 101 to 1000 | Cc1ccc(OCc2ccnc(-c3ccc(C(N)=O)c(C)c3)c2)cc1F [Example 8, 4-[4-(3-fluoro-4-methylphenoxymethyl)pyridin-2-yl]-2-methylbenzamide] |
| 101 to 1000 | Cc1cc(-c2cc(COc3ccc(C#N)c(F)c3F)ccn2)ccc1C(N)=O [Example 9, 4-[4-(4-cyano-2,3-difluorophenoxymethyl)pyridin-2-yl]-2-methylbenzamide] |
| 25 to 100 | Cc1cc(-c2cc(COc3cc(F)c(C#N)c(F)c3)ccn2)ccc1C(N)=O [Example 10, 4-[4-(4-cyano-3,5-difluorophenoxymethyl)pyridin-2-yl]-2-methylbenzamide] |
| 101 to 1000 | Cc1cc(-c2cc(COc3ccnc(C(F)(F)F)c3)ccn2)ccc1C(N)=O [Example 11, 4-[4-({[2-(trifluoromethyl)pyridin-4-yl]oxy}methyl)pyridin-2-yl]-2-methyl benzamide] |
| 25 to 100 | Cc1cc(-c2cc(COc3ccc(F)cc3)ccn2)ccc1C(N)=O [Example 12, 4-[4-(4-fluorophenoxymethyl)pyridin-2-yl]-2-methylbenzamide] |
| < 25 | CC(=O)c1ccc(OCc2ccnc(-c3ccc(C(N)=O)c(C)c3)c2)cc1C [Example 13, 4-[4-(4-acetyl-3-methylphenoxymethyl)pyridin-2-yl]-2-methylbenzamide] |
| 101 to 1000 | Cc1ccc(F)c(OCc2ccnc(-c3ccc(C(N)=O)c(C)c3)c2)c1 [Example 14, 4-[4-(2-fluoro-5-methylphenoxymethyl)pyridin-2-yl]-2-methylbenzamide] |
| 25 to 100 | Cc1cc(-c2cc(COc3cc(F)cc(F)c3)ccn2)ccc1C(N)=O [Example 15, 4-[4-(3,5-difluorophenoxymethyl)pyridin-2-yl]-2-methylbenzamide] |
| 101 to 1000 | Cc1cc(-c2cc(COc3cccc(CCO)c3)ccn2)ccc1C(N)=O [Example 16, 4-{4-[3-(2-hydroxyethyl)phenoxymethyl]pyridin-2-yl}-2-methylbenzamide] |
| 101 to 1000 | COc1ccc(OCc2ccnc(-c3ccc(C(N)=O)c(C)c3)c2)cc1OC [Example 17, 4-[4-(3,4-dimethoxyphenoxymethyl)pyridin-2-yl]-2-methylbenzamide] |
| < 25 | Cc1ccc(OCc2ccnc(-c3ccc(C(N)=O)c(C)c3)c2)cc1Cl [Example 18, 4-[4-(3-chloro-4-methylphenoxymethyl)pyridin-2-yl]-2-methylbenzamide] |
